Measured values from patent US12491160B2, “Formulations of a farnesoid X receptor agonist” (ELI LILLY AND COMPANY, priority 2020, dated 2025).

Key:
FXR = molecular target: T1, FXR (Homo sapiens, UniProt Q96RI1); conditions: published clinical studies, higher administered doses; cited from earlier work
T1 sequence (Q96RI1 1-486): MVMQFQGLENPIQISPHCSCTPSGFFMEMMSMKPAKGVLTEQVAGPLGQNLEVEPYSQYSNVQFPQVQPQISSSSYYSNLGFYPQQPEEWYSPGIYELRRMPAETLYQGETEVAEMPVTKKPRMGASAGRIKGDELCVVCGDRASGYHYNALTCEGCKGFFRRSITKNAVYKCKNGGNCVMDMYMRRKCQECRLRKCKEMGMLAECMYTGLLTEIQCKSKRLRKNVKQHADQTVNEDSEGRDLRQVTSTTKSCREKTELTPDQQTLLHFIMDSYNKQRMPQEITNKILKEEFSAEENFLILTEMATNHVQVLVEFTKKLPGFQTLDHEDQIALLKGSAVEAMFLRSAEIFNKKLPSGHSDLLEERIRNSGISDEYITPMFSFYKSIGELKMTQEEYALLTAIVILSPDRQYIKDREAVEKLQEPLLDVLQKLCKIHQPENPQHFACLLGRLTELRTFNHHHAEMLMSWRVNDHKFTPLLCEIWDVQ

hFXR = molecular target: T2, hFXR (Homo sapiens, UniProt Q96RI1); assay: In Vitro FXR Assay (TK); type: cell-based; conditions: transfected CV-1 cells (hFXR, hRXR, TK-ECRE-luc), 18 hrs incubation, luminescence
T2 construct: expressed in transfected cells; host or cells: CV-1 cells
T2 sequence (Q96RI1 1-486): T1 sequence (Q96RI1 1-486)
T2 sequence (P19793 1-462 partner): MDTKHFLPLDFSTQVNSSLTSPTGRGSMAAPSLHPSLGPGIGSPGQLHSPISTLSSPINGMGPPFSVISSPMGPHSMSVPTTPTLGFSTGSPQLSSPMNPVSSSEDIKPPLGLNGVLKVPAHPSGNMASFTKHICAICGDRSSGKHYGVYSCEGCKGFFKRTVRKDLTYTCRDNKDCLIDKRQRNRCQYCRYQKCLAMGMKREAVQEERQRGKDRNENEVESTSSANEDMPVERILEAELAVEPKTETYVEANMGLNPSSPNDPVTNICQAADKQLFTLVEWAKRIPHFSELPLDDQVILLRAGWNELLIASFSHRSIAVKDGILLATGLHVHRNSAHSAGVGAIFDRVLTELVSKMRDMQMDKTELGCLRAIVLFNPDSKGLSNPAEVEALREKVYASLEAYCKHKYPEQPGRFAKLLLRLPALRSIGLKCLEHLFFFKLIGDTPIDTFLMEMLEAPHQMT
Procedure: CV-1 cells were seeded at a density of 2,000,000 cells in a T175 flask with DMEM+10% charcoal double-stripped FBS and incubated at 37° C. in 5% CO2 for 18 h (O/N).
After 18 h of incubation, the medium in the T175 flask was changed with fresh DMEM+10% charcoal super-stripped serum. In a polypropylene tube, 2500 μL OptiMEM (Life Technologies, Cat #31985-062) was combined with expression plasmids for hFXR, hRXR, TK-ECRE-luc and pCMX-YFP. The tube was then briefly vortexed and incubated at room temperature for 5 minutes. Transfection reagent (X-tremeGENE HP from Roche, Cat #06 366 236 001) was added to the OptiMEM/plasmid mixture vortexed and incubated at room temperature for 20 minutes. Following incubation, the transfection reagent/DNA mixture complex was added to cells in the T175 flask and the cells were incubated at 37° C. in 5% CO2 for 18 h (O/N).
Compound 1 was serially diluted in DMSO and added to transfected CV-1 cells. The cells were then incubated for 18 hrs. The next day cells were lysed and examined for luminescence. Compound 1 TK hFXR: EC50≤0.01 μM.

Structure (SMILES)	adverse side effects (FXR)	EC50 (hFXR)
CC[C@H]1[C@@H](O)[C@@H]2[C@H](CC[C@]3(C)[C@@H]([C@H](C)CCC(=O)O)CC[C@@H]23)[C@@]2(C)CC[C@@H](O)C[C@@H]12 [OCA, Obeticholic acid]	adverse side effects at higher administered doses, such as pruritis, increased LDL cholesterol and liver toxicity	–
COc1ccc(C23CCC(CN(c4cc(-c5cnn(C(C)(C)C)c5)ccn4)C(=O)[C@H]4CC[C@H](OC(=O)N5CC(O)C5)CC4)(CC2)CC3)cc1C [Compound 1, 4-((4-(1-(tert-butyl)-1H-pyrazol-4-yl)pyridin-2-yl)((4-(4-methoxy-3-methylphenyl)bicyclo[2.2.2]octan-1-yl)methyl)carbamoyl)cyclohexyl 3-hydroxyazetidine-trans-1-carboxylate]	–	≤ 0.01 µM
